Data taken from US10137084B2, “Use of bethanechol for treatment of xerostomia” (priority 2009, dated 2018).

Columns and labels:
patients with xerostomia = experiment: clinical study in patients with xerostomia, buccal solution versus placebo; type: in vivo, human; conditions: approximately 0.5 ml solution retained against the buccal mucosa for 1 to 2 minutes and then swallowed, crossover versus placebo
Method: A cohort of approximately 20 patients with xerostomia is randomised to receive either placebo or bethanechol formulation or vice versa with at least 3 days washout between the treatment segments. Each treatment is given as a small volume (approximately 0.5 ml) solution to be retained against the buccal mucosa for 1 to 2 minutes and then swallowed. Clinical investigations include vital signs, haematology/chemistry and appearance of the buccal mucosa. Efficacy measurements include salivary flow and composition of major and minor glands using standard techniques (see e.g. Ferguson 1999, Archives of Oral Biol., 44:S11-S14; Boros et al., Archives of Oral Biol., 44:S59-S62) and the assessment of subjective oral dryness/comfort using validated measures (see e.g. Chainani-Wu et al., 2006, Spec. Care Dentist 26(4):164-170).

rats [1] = experiment: cardiovascular and respiratory parameters after application to the buccal cavity of anaesthetised rats; type: in vivo, rat
Source text: (§1) In separate experiments, the effects of bethanechol (saturated solution, see above) were compared with those of physostigmine (1% solution in saline) on cardiovascular and respiratory parameters when applied to the buccal cavity of rats. Anaesthesia was induced in animals with urethane (1.75 g/kg given i.p.). Each animal was artificially ventilated via a tracheal cannula that was connected to a Fleisch (size 00) pneumotachograph and a pressure transducer (pressure range ±2 cm H2O). […] The left carotid artery was cannulated for recording blood pressure and heart rate, and the left jugular vein cannulated for drug administration. For topical administration, after 15-30 minutes a Parafilm ball was inserted into the back of the oral cavity to prevent the loss of solution into the oesophagus and airways. At T−10 minutes a cotton wool ball was inserted into the oral cavity and 10 minutes later it was removed and excess saliva wiped away. At T=O minutes physostigmine (1%, 10 microliters each on left and right sides) or bethanechol (10 microliters each on left and right sides) were instilled using a pipette. At T=10 minutes, another cotton wool ball was inserted into the oral cavity, 10 min later, it was removed and the excess saliva wiped away. The effects on baseline cardiovascular and respiratory parameters were recorded over 90 minutes. Physostigmine produced changes in all measured parameters, the mean maximum effects seen during the observation period were for pulmonary inflation pressure 44% increase, mean arterial pressure 17% decrease and heart rate 9.3% decrease (all n=2). In contrast, bethanechol produced minimal (and not significant) effects on any of these parameters, the mean maximum changes being 0% change, 3% decrease and 1% decrease for pulmonary inflation pressure, mean arterial pressure and heart rate respectively (n=3).

male Sprague-Dawley rats = experiment: efficacy study: saliva production after topical instillation into the oral cavity of anaesthetised rats; type: in vivo, rat; conditions: saturated solution
Method: In the experiments outlined below, bethanechol chloride for buccal administration was prepared as a saturated solution in a solvent mixture comprising PEG 400, glycerol, ethanol and sodium phosphate buffer. Specific solvent amounts were 30% PEG 400, 30% glycerol, 20% ethanol with 20% phosphate buffer (formed by mixing 50 ml of 0.1M sodium phosphate monobasic (monohydrate) with sufficient 0.1M sodium phosphate dibasic (heptahydrate) until a pH of 5.5 was achieved). Bethanechol chloride was present at up to 33%.
In order to prepare a saturated solution of bethanechol chloride the following method was used. A magnetic flea was placed into a 20 ml scintillation vial and the weight of both was recorded. Exactly 0.8 g of the pH 5.5 buffer solution was placed into the container. […] Once the saturated solution (containing un-dissolved bethanechol) had been achieved, the vial was placed onto a balance and the total weight recorded. […] The amounts of ethanol, glycerol and PEG 400 were calculated to make a solution containing 30% PEG 400, 30% glycerol, 20% ethanol and 20% buffer and bethanechol. […]
Saliva production data were analysed by repeated measures two-way ANOVA followed by Bonferronis post tests (GraphPad Prism version 5.0, GraphPad Software, San Diego, Calif., USA). […]

rats [2] = experiment: cardiovascular and respiratory effects after intravenous administration in rats; type: in vivo, rat; conditions: n=3
Source text: as §1
For an additional comparison, the effects of bethanechol (prepared in saline, dosing volume 0.1 ml) over a dose range of 0.3 micrograms/kg to 300 micrograms/kg administered intravenously were studied in rats. Doses were administered in ascending order to each animal (n=3) and cardiovascular and respiratory effects monitored over 5 minutes or until the recorded parameter had returned to baseline (whichever was the later). […] The effects observed with bethanechol at 300 micrograms/kg were mean arterial pressure 72% decrease, heart rate 69% decrease and pulmonary inflation pressure 30% increase.

[3] = buccal, 10 microliters each on left and right sides, recorded over 90 minutes, physostigmine 1% (n=2), bethanechol saturated solution (n=3)

| Compound | salivary flows (patients with xerostomia) | subjective oral dryness/comfort scores (patients with xerostomia) | heart rate, mean maximum effect (decrease) (rats [1]; rat, in vivo) [%] | mean arterial pressure, mean maximum effect (decrease) (rats [1]; rat, in vivo) [%] | pulmonary inflation pressure, mean maximum effect (increase) (rats [1]; rat, in vivo) [%] | salivary output (male Sprague-Dawley rats; applied topically, for up to 70 minutes) | increase of total saliva production above vehicle effect (male Sprague-Dawley rats; 10 microliters on each side of the mouth, 70 minute collection period, P less than 0.01, n=4) [%] | heart rate decrease (rats [2]; 0.3 micrograms/kg, in saline) [%] | mean arterial pressure decrease (rats [2]; 0.3 micrograms/kg, in saline) [%] | heart rate decrease (rats [2]; 300 micrograms/kg, in saline) [%] | mean arterial pressure decrease (rats [2]; 300 micrograms/kg, in saline) [%] | pulmonary inflation pressure increase (rats [2]; 300 micrograms/kg, in saline) [%] | dose at which increases in pulmonary inflation pressure were seen (rats [2]; ascending doses 0.3 to 300 micrograms/kg) [micrograms/kg] | heart rate, mean maximum effect (decrease) (rats [1]; [3]) [%] | mean arterial pressure, mean maximum effect (decrease) (rats [1]; [3]) [%] | pulmonary inflation pressure, mean maximum effect (increase) (rats [1]; [3]) [%] |
| --- | --- | --- | --- | --- | --- | --- | --- | --- | --- | --- | --- | --- | --- | --- | --- | --- |
| CC(C[N+](C)(C)C)OC(N)=O (stereo not shown) [bethanechol, Bethanechol chloride] | increase salivary flows | improve subjective oral dryness/comfort scores | 1 | 3 | 0 | sustained and significant increase | 72 | 6 | 31 | 69 | 72 | 30 | ≥ 3 |  |  |  |
| CNC(=O)Oc1ccc2c(c1)[C@]1(C)CCN(C)[C@@H]1N2C [physostigmine] |  |  |  |  |  |  |  |  |  |  |  |  |  | 9.3 | 17 | 44 |
